Assay results: US8846694B2, “Pyrrolidone derivatives for use as MetAP-2 inhibitors” (Merck Patent GmbH, priority 2008, dated 2014)
Values after ≈ are worked out from the molar mass of the structure shown.

test system: not listed separately; experiment: Shake flask solubility measurement; format: physicochemical; details: shake flask, buffer; shaken at 37° C. for 24 h
Description: Determination by Shake Flask Solubility Measurement
• Eluent A: 2 ml of diethylamine, for synthesis+1000 ml of methanol, LiChrosolv • Eluent B: 5 g of ammonium acetate, for analysis+5 ml of methanol, LiChrosolv+995 ml of ultrapure water Sample Solvent:
Buffer: 3.954 g of sodium dihydrogenphosphate monohydrate+6.024 g of sodium chloride+950 ml of ultrapure water the pH is adjusted using 0.1 M NaOH or 0.1 M HCl.
The samples are shaken at 37° C. and 450 rpm for 24 h.
After about 7 h, the pH of the samples is checked and adjusted if necessary. It is also checked whether the sample is still present in excess.
Just before the end of the 24 h shaking time, the samples are again checked for pH and a precipitate.

Row | Compound | solubility
1 | CC(O)CNC(=O)c1cc(OC[C@H]2CCCN2c2ncnc3[nH]cnc23)c2ccccc2n1 (stereo partly drawn) | 325 µg/mL (≈ 726 µM)
2 | Clc1cccc(OC[C@H]2CCCN2c2ncnc3[nH]cnc23)c1Cl [6-[(R)-2-(2,3-dichlorophenoxymethyl)pyrrolidin-yl]-9H-purine, reference compound] | < 1 µg/mL

same assay, conditions: sodium phosphate/sodium chloride buffer, aqueous buffer, thermodynamic from solid; buffer system at pH 7; shaken at 37° C. for 24 h

Row | solubility at 24 h | Compound
3 | 283 µg/mL (≈ 580 µM) | c1ccc2c(OC[C@H]3CCCN3c3ncnc4[nH]cnc34)ccc(CNCCN3CCOCC3)c2c1 [(2-morpholin-4-ylethyl)-{4-[(R)-1-(9H-purin-6-yl)pyrrolidin-2-ylmethoxy]naphthalen-1-ylmethyl}amine]

same assay, conditions: sodium phosphate/sodium chloride buffer, aqueous buffer, thermodynamic from solid; shake flask, buffer; shaken at 37° C. for 24 h

Row | solubility at 24 h | Compound
4 | 108 µg/mL (≈ 237 µM) | O=C(c1ccc(CC[C@H]2CCCN2c2ncnc3[nH]cnc23)c2ccccc12)N1CCOCC1 [Morpholin-4-yl-(4-{2-[(S)-1-(9H-purin-6-yl)pyrrolidin-2-yl]ethyl}naphthalen-1-yl)-methanone]
5 | 29 µg/mL (≈ 67.1 µM) | CNC(=O)/C=C1/CCc2c(OC[C@H]3CCCN3c3ncnc4[nH]cnc34)cccc2C1=O [N-methyl-2-[1-oxo-5-[(R)-1-(9H-purin-6-yl)pyrrolidin-2-ylmethoxy]-3,4-dihydro-1H-naphthalen-(2Z)-ylidene]acetamide]
6 | > 3800 µg/mL | O=C(O)/C=C1/CCc2c(OC[C@H]3CCCN3c3ncnc4[nH]cnc34)cccc2C1=O [[1-oxo-5-[(R)-1-(9H-purin-6-yl)pyrrolidin-2-ylmethoxy]-3,4-dihydro-1H-naphthalen-(2Z)-ylidene]acetic acid]

biological target: MetAP-2 (Homo sapiens, UniProt P50579); experiment: MetAP-2 activity measurement (coupled enzymatic reactions, substrate Met-Arg-Ser, photometric at 450 nm); format: biochemical; details: read-out: IC50 enzyme (Inhibition of MetAP-2)
Summary of the method: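 Human MetAP-2 cleaves Met-Arg-Ser; the freed methionine is oxidized by L-amino acid oxidase, and the resulting H2O2 drives peroxidase oxidation of dianisidine, read continuously at 450 nm. Activity is taken as the slope in the visually linear region.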

MetAP-2, sequence (P50579 whole entry, species assumed): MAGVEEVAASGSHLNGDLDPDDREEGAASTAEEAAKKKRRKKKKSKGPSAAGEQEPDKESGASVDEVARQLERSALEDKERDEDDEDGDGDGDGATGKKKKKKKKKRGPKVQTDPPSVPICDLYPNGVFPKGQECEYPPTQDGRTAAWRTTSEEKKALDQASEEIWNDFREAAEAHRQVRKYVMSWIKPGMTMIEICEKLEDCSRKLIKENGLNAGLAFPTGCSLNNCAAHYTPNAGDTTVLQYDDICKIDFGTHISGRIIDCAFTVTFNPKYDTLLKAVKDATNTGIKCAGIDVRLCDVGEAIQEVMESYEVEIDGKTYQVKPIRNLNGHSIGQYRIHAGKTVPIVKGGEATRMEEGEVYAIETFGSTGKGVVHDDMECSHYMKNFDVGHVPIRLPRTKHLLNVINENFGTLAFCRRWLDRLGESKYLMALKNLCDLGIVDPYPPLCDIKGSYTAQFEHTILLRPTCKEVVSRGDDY

Row | IC50 | Compound
7 | 0.01 to 1 µM | O=Cc1ccc(OC[C@H]2CCCN2c2ncnc3[nH]cnc23)c2ccccc12 [A2, 4-[(R)-1-(9H-purin-6-yl)pyrrolidin-2-ylmethoxy]naphthalene-1-carbaldehyde]
8 | 1 to 10 µM | F[C@H]1C[C@H](COc2ccccc2Cl)N(c2ncnc3[nH]cnc23)C1 [A7, 6-[(2R,4S)-2-(2-chlorophenoxymethyl)-4-fluoropyrrolidin-1-yl]-9H-purine]
9 | > 10 µM | O=C(Cn1c(C(=O)NCCc2ccc(F)cc2)c(OC[C@H]2CCCN2c2ncnc3[nH]cnc23)c2cc(F)ccc21)NCCc1ccc(F)cc1 [A200, N-[2-(4-Fluorophenyl)ethyl]-5-fluoro-1-{[2-(4-fluorophenyl)ethylcarbamoyl]methyl}-3-[(R)-1-(9H-purin-6-yl)pyrrolidin-2-ylmethoxy]-1H-indole-2-carboxamide]
10 | 1 to 10 µM | NC(=O)C[C@H](N)C(=O)N1CCc2cccc(OC[C@H]3CCCN3c3ncnc4[nH]cnc34)c2C1 [A201, (S)-3-Amino-4-oxo-4-{8-[(R)-1-(9H-purin-6-yl)-pyrrolidin-2-ylmethoxy]-3,4-dihydro-1H-isoquinolin-2-yl}butyramide]
11 | 1 to 10 µM | NC(=O)CCC(=O)N1CCc2cccc(OC[C@H]3CCCN3c3ncnc4[nH]cnc34)c2C1 [A202, 4-Oxo-4-{8-[(R)-1-(9H-purin-6-yl)pyrrolidin-2-yl-methoxy]-3,4-dihydro-1H-isoquinolin-2-yl}-butyramide]
12 | > 10 µM | Fc1ccc(CCNCCn2cc(OC[C@H]3CCCN3c3ncnc4[nH]cnc34)c3cc(F)ccc32)cc1 [A203, [2-(4-Fluorophenyl)ethyl]-(2-{5-fluoro-3-[(R)-1-(9H-purin-6-yl)pyrrolidin-2-ylmethoxy]indol-1-yl}-ethyl)amine]

test system: not given; experiment: not given; details: not given

Row | melting point | Compound
13 | 158 to 160 °C | O=C(c1ccc(CCC2CCCN2c2ncnc3[nH]cnc23)c2ccccc12)N1CCOCC1 (racemic) [A6, morpholin-4-yl-(4-{2-[-1-(9H-purin-6-yl)pyrrolidin-2-yl]ethyl}naphthalen-1-yl)methanone]
14 | 167 to 168 °C | O=Cc1ccc(OC[C@H]2CCCN2c2ncnc3[nH]cnc23)c2ccccc12 [A2, 4-[(R)-1-(9H-purin-6-yl)pyrrolidin-2-ylmethoxy]naphthalene-1-carbaldehyde]
15 | 143 to 144 °C | F[C@H]1C[C@H](COc2ccccc2Cl)N(c2ncnc3[nH]cnc23)C1 [A7, 6-[(2R,4S)-2-(2-chlorophenoxymethyl)-4-fluoropyrrolidin-1-yl]-9H-purine]
